# Non-standard residues stand in square brackets, D forms with d. Residues, ends and D or L forms follow the SMILES beside them. Orn = NCCC[C@H](N)C(=O)O
# Tests used:
# [1] = Hemolytic activity against human erythrocytes after 1 hr by digital photoelectric colorimetric method; assay type: ADME, cell-based, Erythrocyte
# Staphylococcus aureus [2] = assay: Antibacterial activity against Staphylococcus aureus MRSA-2 assessed as bacterial growth inhibition in Mueller-Hinton broth 2 measured every 24 hrs for 5 days by serial dilution method; assay type: functional; conditions: MRSA-2, 120 h, time 5 day
# Staphylococcus aureus [3] = assay: Antibacterial activity against Staphylococcus aureus MRSA-1 assessed as bacterial growth inhibition in Mueller-Hinton broth 2 measured every 24 hrs for 5 days by serial dilution method; assay type: functional; conditions: MRSA-1, 120 h, time 5 day
# Staphylococcus aureus [4] = assay: Bactericidal activity against Staphylococcus aureus MRSA-2 measured every 24 hrs for 5 days by serial dilution method; assay type: functional; conditions: MRSA-2, 120 h, time 5 day
# Staphylococcus aureus [5] = assay: Bactericidal activity against Staphylococcus aureus 209P measured every 24 hrs for 5 days by serial dilution method; assay type: functional; conditions: 120 h, time 5 day
# Staphylococcus aureus [6] = assay: Bactericidal activity against Staphylococcus aureus MRSA-1 measured every 24 hrs for 5 days by serial dilution method; assay type: functional; conditions: MRSA-1, 120 h, time 5 day
# Staphylococcus aureus [7] = assay: Antibacterial activity against Staphylococcus aureus 209P assessed as bacterial growth inhibition in Mueller-Hinton broth 2 measured every 24 hrs for 5 days by serial dilution method; assay type: functional; conditions: 120 h, time 5 day
compound,measurement,setting,value
CC(C)C[C@@H]1NC(=O)[C@H](CCCN)NC(=O)[C@H](C(C)C)NC(=O)[C@@H]2CCCN2C(=O)[C@@H](Cc2ccccc2)NC(=O)[C@H](CC(C)C)NC(=O)[C@H](CCCN)NC(=O)[C@H](C(C)C)NC(=O)[C@@H]2CCCN2C(=O)[C@@H](Cc2ccccc2)NC1=O [GRAMICIDIN S] (cyclo(L[dF]PV[Orn]L[dF]PV[Orn])),HC50 at 1 h,[1],9.4 µM
CC1(C)S[C@@H]2[C@H](NC(=O)[C@H](N)c3ccc(O)cc3)C(=O)N2[C@H]1C(=O)O [AMOXICILLIN],MIC,Staphylococcus aureus [2],85.7 µM
same,MIC,Staphylococcus aureus [3],85.7 µM
same,MBC,Staphylococcus aureus [4],85.7 µM
same,MBC,Staphylococcus aureus [5],2.5 µM
same,MBC,Staphylococcus aureus [6],85.7 µM
same,MIC,Staphylococcus aureus [7],0.7 µM
